PubChem BioAssay AID2060489 (Molecular Pharmacology Branch, DTP, NCI, 2025)
pIC50: −log10 of the molar value.

System: 922993-354-T-J3-PDC complex spheroids, viability
Test: Anticancer human tumor 922993-354-T-J3-PDC patient-derived endometrial carcinoma cell line growth inhibition [GQUAD]
Settings: for pIC50: curve of first compound; for viability, T/C: stronger effect = lower value
From the text: DNA G-quadruplex Stabilizer Agents in Combinations in Complex Spheroids
A high-throughput screen of multi-cell type tumor spheroids was designed to identify active combinations of DNA G-quadruplex stabilizer agents and targeted small molecules. Complex spheroids include a stromal component modeled by human endothelial cells (HUVEC) and fibroblasts modeled by human mesenchymal stem cells (MSCs). The concentration ranges selected for each drug and investigational agent were based upon clinically achievable concentrations if the clinical Cmax of the agent was known.
Compounds. The drugs and investigational agents: pidnarulex (CX-5461; NSC782164), APTO-253 (NSC789042), BRACO-19 (NSC847499), peposertib (NSC802822), ceralasertib (NSC780249), elimusertib (NSC800525), camonsertib (NSC841442), AZD-1390 (NSC803789), olaparib (NSC753686), talazoparib (NSC767125), ART-558 (NSC835418), sotorasib (NSC818433), MRTX-1133 (NSC836407), SN-38 (NSC673596), topotecan (NSC609699), etoposide (NSC141540), doxorubicin (NSC123127), gemcitabine (NSC613327), 5-fluorouracil (NSC19893), paclitaxel (NSC125973), vemurafenib (NSC761431), panobinostat (NSC761190), R-306465 (JNJ-16241199; NSC773264), adavosertib (NSC754352), TP-3654 (NSC805149), carboplatin (NSC241240), KSQ-4279 (NSC840948), and staurosporine (NSC755774) were obtained from the National Cancer Institute (NCI) Developmental Therapeutics Program Chemical Repository (34). The FDA-approved anticancer drug set is available from the NCI Developmental Therapeutics Program. […] The stock solutions were prepared in dimethyl sulfoxide (DMSO, Sigma-Aldrich, St. Louis, MO, cat. D2650) at 800-fold the tested concentration and stored at -70 degrees C prior to their use. All drugs and investigational agents were tested over a range starting from a high concentration at or near the clinical Cmax and decreasing in half-log increments. If the clinical Cmax for an agent had not been determined, the highest concentration tested was 10 microM.
2.3 Cell Culture. All cells were maintained in an incubator at 37 degrees C and 5% CO2 with 95% humidity. The PDC lines were cultured according to standard operating procedures established by the NCI PDMR. All PDCs were thawed and cultured in Matrigel-coated flasks prepared with a working solution of 1X Ham's F-12 nutrient mix, without supplementation (Invitrogen, cat. 11765054), 100 U/mL penicillin-streptomycin (Invitrogen, cat. 15140122), and 2.5% Matrigel (Corning Inc., cat. 354248) for the first three passages. The 857933-349-R-J2-PDC line was cultured in 6C/Colon 1B media, which includes advanced DMEM/F-12 (Thermo Fisher Scientific, cat. 12634028), 10 mM HEPES (Thermo Fisher Scientific, cat. 15630080), 1X GlutaMAX supplement (Thermo Fisher Scientific, cat. 35050061), 0.1 mg/mL primocin (InvivoGen, cat. ant-pm-2), 10% defined fetal bovine serum, heat inactivated (HyClone Laboratories Inc., cat. SH30070.03HI), 50% L-WRN conditioned media (ATCC, cat. CRL-3276), 1.25 mM N-Acetyl-L-cysteine (Sigma-Aldrich, cat. A9165), 10 mM nicotinamide (Sigma-Aldrich, cat. N0636), 1X B-27 supplement (Thermo Fisher Scientific, cat. 17504044), 1X N-2 supplement (Thermo Fisher Scientific, cat. 17502048), 10 microM Y-27632 dihydrochloride (Tocris Bioscience, cat. 1254), and 50 ng/mL human EGF recombinant protein (Thermo Fisher Scientific, cat. PHG0311). The 485176-168-R4-J1-PDC line was cultured in Panc media, which includes all 6C/Colon 1B media components plus 100 ng/mL human FGF-10 (Thermo Fisher Scientific, cat. 100-26), 500 nM SB-431542 (Selleckchem, cat. S1067), and gastrin (Tocris, cat. 3006).
[…]

[1] = second compound 0.0316 µM, first compound 0.0316 µM
[2] = second compound 0.0316 µM, first compound 0.316 µM
[3] = second compound 0.1 µM, first compound 0.0316 µM
[4] = second compound 0.1 µM, first compound 0.316 µM
[5] = second compound 0.316 µM, first compound 0.0316 µM
[6] = second compound 0.316 µM, first compound 0.316 µM
[7] = second compound 1 µM, first compound 0.0316 µM
[8] = second compound 1 µM, first compound 0.316 µM
[9] = second compound 3.16 µM, first compound 0.0316 µM
[10] = second compound 3.16 µM, first compound 0.316 µM
[11] = second compound 10 µM, first compound 0.0316 µM
[12] = second compound 10 µM, first compound 0.316 µM
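Further: spheroids exposed to compounds for seven days.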
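Wherever viability, T/C is given: 100% = DMSO vehicle control viability.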

In the case of CC(C)(O)C1CCC(Nc2ccc3ncc(-c4cccc(C(F)(F)F)c4)n3n2)CC1 (centres undefined) + Cc1[nH]c2ccc(F)cc2c1-c1nc2c3cccnc3c3ncccc3c2[nH]1, the pIC50 (second compound 0.0316 µM) was < 5.00, the pIC50 (second compound 0.1 µM) was < 5.00 and the pIC50 (second compound 0.316 µM) was < 5.00. For the same compound, the pIC50 (second compound 1 µM) was < 5.00, the pIC50 (second compound 3.16 µM) was < 5.00 and the pIC50 (second compound 10 µM) was < 5.00. It also gave a viability, T/C [1] of 96.5%, a viability, T/C (second compound 0.0316 µM, first compound 0.1 µM) of 93.5% and a viability, T/C [2] of 76.6%. For the same compound, the viability, T/C (second compound 0.0316 µM, first compound 1 µM) was 84.5%, the viability, T/C (second compound 0.0316 µM, first compound 3.16 µM) was 72.9% and the viability, T/C (second compound 0.0316 µM, first compound 10 µM) was 66.5%. For the same compound, the viability, T/C [3] was 95.6%, the viability, T/C (second compound 0.1 µM, first compound 0.1 µM) was 77% and the viability, T/C [4] was 99.1%. It also gave a viability, T/C (second compound 0.1 µM, first compound 1 µM) of 77.3%, a viability, T/C (second compound 0.1 µM, first compound 3.16 µM) of 85% and a viability, T/C (second compound 0.1 µM, first compound 10 µM) of 77.2%. It also gave a viability, T/C [5] of 99.7%, a viability, T/C (second compound 0.316 µM, first compound 0.1 µM) of 87.4% and a viability, T/C [6] of 91.2%. The viability, T/C (second compound 0.316 µM, first compound 1 µM) was 108%, the viability, T/C (second compound 0.316 µM, first compound 3.16 µM) was 81.6% and the viability, T/C (second compound 0.316 µM, first compound 10 µM) was 62.6%. It also gave a viability, T/C [7] of 86.5%, a viability, T/C (second compound 1 µM, first compound 0.1 µM) of 104% and a viability, T/C [8] of 92.6%. For the same compound, the viability, T/C (second compound 1 µM, first compound 1 µM) was 87.5%, the viability, T/C (second compound 1 µM, first compound 3.16 µM) was 77.7% and the viability, T/C (second compound 1 µM, first compound 10 µM) was 66.4%. The viability, T/C [9] was 95.2%, the viability, T/C (second compound 3.16 µM, first compound 0.1 µM) was 80.2% and the viability, T/C [10] was 111%. It also gave a viability, T/C (second compound 3.16 µM, first compound 1 µM) of 79.8%, a viability, T/C (second compound 3.16 µM, first compound 3.16 µM) of 94.7% and a viability, T/C (second compound 3.16 µM, first compound 10 µM) of 67%. It also gave a viability, T/C [11] of 105%, a viability, T/C (second compound 10 µM, first compound 0.1 µM) of 105% and a viability, T/C [12] of 84.6%. The viability, T/C (second compound 10 µM, first compound 1 µM) was 99.8%, the viability, T/C (second compound 10 µM, first compound 3.16 µM) was 72.8% and the viability, T/C (second compound 10 µM, first compound 10 µM) was 61.6%.
For Cc1cnc(CNC(=O)c2c(=O)c3ccc(N4CCCN(C)CC4)nc3n3c2sc2ccccc23)cn1, the viability, T/C (compound 0.0316 µM) was 83.9% [middle of 12 runs], the viability, T/C (compound 0.1 µM) was 66% [middle of 12 runs] and the viability, T/C (compound 1 µM) was 53.7% [middle of 12 runs]. The viability, T/C (compound 3.16 µM) was 49.3% [middle of 12 runs] and the viability, T/C (compound 10 µM) was 46.9% [middle of 12 runs].
Compound CCc1c2c(nc3ccc(O)cc13)-c1cc3c(c(=O)n1C2)COC(=O)[C@]3(O)CC + Cc1[nH]c2ccc(F)cc2c1-c1nc2c3cccnc3c3ncccc3c2[nH]1 has a pIC50 (second compound 0.0316 µM) of 8.12, a pIC50 (second compound 0.1 µM) of 8.09 and a pIC50 (second compound 0.316 µM) of 8.18. It also gave a pIC50 (second compound 1 µM) of 8.10, a pIC50 (second compound 3.16 µM) of 8.12 and a pIC50 (second compound 10 µM) of 8.17. For the same compound, the viability, T/C (second compound 0.0316 µM, first compound 0.000999 µM) was 91.8%, the viability, T/C (second compound 0.0316 µM, first compound 0.00316 µM) was 68.3% and the viability, T/C (second compound 0.0316 µM, first compound 0.00999 µM) was 48.7%. The viability, T/C [1] was 22.1%, the viability, T/C (second compound 0.0316 µM, first compound 0.0999 µM) was 25.9% and the viability, T/C [2] was 32.9%. For the same compound, the viability, T/C (second compound 0.1 µM, first compound 0.000999 µM) was 103%, the viability, T/C (second compound 0.1 µM, first compound 0.00316 µM) was 81.9% and the viability, T/C (second compound 0.1 µM, first compound 0.00999 µM) was 44.2%. For the same compound, the viability, T/C [3] was 24.4%, the viability, T/C (second compound 0.1 µM, first compound 0.0999 µM) was 25.4% and the viability, T/C [4] was 33%. For the same compound, the viability, T/C (second compound 0.316 µM, first compound 0.000999 µM) was 119%, the viability, T/C (second compound 0.316 µM, first compound 0.00316 µM) was 76.1% and the viability, T/C (second compound 0.316 µM, first compound 0.00999 µM) was 36.6%. It also gave a viability, T/C [5] of 23.4%, a viability, T/C (second compound 0.316 µM, first compound 0.0999 µM) of 24.6% and a viability, T/C [6] of 36.5%. The viability, T/C (second compound 1 µM, first compound 0.000999 µM) was 101%, the viability, T/C (second compound 1 µM, first compound 0.00316 µM) was 82.4% and the viability, T/C (second compound 1 µM, first compound 0.00999 µM) was 43.4%. The viability, T/C [7] was 24.3%, the viability, T/C (second compound 1 µM, first compound 0.0999 µM) was 22.6% and the viability, T/C [8] was 32.1%. It also gave a viability, T/C (second compound 3.16 µM, first compound 0.000999 µM) of 105%, a viability, T/C (second compound 3.16 µM, first compound 0.00316 µM) of 67.2% and a viability, T/C (second compound 3.16 µM, first compound 0.00999 µM) of 53.6%. For the same compound, the viability, T/C [9] was 15.6%, the viability, T/C (second compound 3.16 µM, first compound 0.0999 µM) was 31.4% and the viability, T/C [10] was 28.9%. It also gave a viability, T/C (second compound 10 µM, first compound 0.000999 µM) of 102%, a viability, T/C (second compound 10 µM, first compound 0.00316 µM) of 65.4% and a viability, T/C (second compound 10 µM, first compound 0.00999 µM) of 48.5%. The viability, T/C [11] was 18.8%, the viability, T/C (second compound 10 µM, first compound 0.0999 µM) was 22.9% and the viability, T/C [12] was 33.6%.
